Test results from patent US5506354A, “Imidazolylpiperazinyl steroids” (The Upjohn Company, priority 1992, dated 1996).
Structures can show the parent of a compound that is named as a salt.

Columns and labels:
mucous secretion = assay: Inhibition of mucous secretion assay of Johnson; conditions: for inhibition of mucous secretion (activity in words): induced mucous secretions
From the text: According to this procedure compounds which inhibit or block enhancement of induced mucous secretions when tested are considered to be "active".

[1] = test system: conjugated diene formation; assay: Conjugated Diene Formation Assay (rat brain synaptosomes); assay type: biochemical; conditions: 100 μM (or less) of drug; active = inhibition by 50% or more
From the text: The formation of conjugated dienes as assayed by Braughler, J. Neurochem., 44, 1282 (1985), Bucher, Fund. Applied Tox., 3, 222 (1983) and Tein, Arch. Biochem. Biophy., 216, 142 (1982) is a standard pharmacological laboratory procedure useful for identifying compounds which inhibit lipid peroxidation. Since lipid peroxidation is involved in the pathophysiology of central nervous system trauma, compounds which inhibit conjugated diene formation are useful in treating the conditions listed below.
44, 1282 (1985). Synaptosomal suspension (10 μl) is added to 1 ml of physiological (normal) saline containing 1% Lubrol PX (Sigma Chemical Co. St. Louis, Mo.), 100 μM hydrogen peroxide and 100 μM (or less) of the drug to be tested prepared in either absolute ethanol or water depending upon solubility. The reaction is started by the rapid addition of 200 μM ferrous ammonium sulfate prepared in argon-purged water. The sample is rapidly mixed and the change in absorbence at 232 nm is followed in a Gifford Response Spectrophotometer equipped with a rapid sampler. Due to the rapidity of the reaction, rapid addition of the iron, rapid mixing and sampling are obligatory to the accuracy of the assay. For best results absorbence readings of one/sec should be started within 5 sec following the addition of iron. The initial linear rate of absorbence change during the first 30 sec of reaction are compared with the rate of a reaction containing all reagents except synaptosomes. The difference in rates is the rate of conjugated diene formation. Rates with drug are compared to rates obtained in the absence of drug and the % inhibition is calculated. A compound that inhibits conjugated diene formation by 50% or more is considered to be "active".

arachidonic acid = assay: Arachidonic Acid Antagonism Assay (AAAA), LD50 of sodium arachidonate; assay type: in vivo, Charles River male CF-1 mice; conditions: for arachidonic acid antagonism (activity in words): test compound IV 15 min before sodium arachidonate, LD50 outside 95% confidence interval of control
Protocol: Since these metabolites contribute to the pathological problems associated with stroke, spinal trauma and head injury, compounds which antagonize arachidonic acid are useful in treating stroke, spinal trauma and head injury.
While not necessary to determine arachidonic acid antagonism, the above assay has been modified as follows: Charles River male CF-1 mice weighing 18-22 g are treated IV with the test compound dissolved in 1.0% Tween-80 and 0.1% hydrochloric acid in distilled water, 0.2 ml total volume. Fifteen minutes later sodium arachidonate (90% pure) in physiological (normal) saline is injected into the tail vein. The LD50 is measured using the Spearman-Karber method with a log dose interval of 0.05 (N=6). Compounds which elevate the LD50 outside of the 95% confidence interval of the control LD50 are considered to be "active".

interleukin-1 = assay: Inhibition of interleukin-1 induced T cell proliferation; assay type: cell-based; conditions: for inhibition of interleukin 1 (activity in words): active = greater than 30% at 10^-6 M
From the text: The inhibition of interleukin-1 induced T cell proliferation assay, Proc. Nat. […] Since people with arthritis make excess interleukin 1, compounds which inhibit the activity of interleukin 1 are useful in the treatment of arthritis. According to this procedure compounds which inhibit the activity of interleukin 1 greater that 30% at 10^-6 M are considered to be "active".

MDA formation = assay: Malonyldialdehyde (MDA) Formation Assay (rat brain synaptosomes); assay type: biochemical; conditions: 10 min at 37°, pH 7.0; active = 50% or more at 200 μM or less
Protocol: Since lipid peroxidation is involved in the pathophysiology of center nervous system trauma, compounds which inhibit MDA formation are useful in treating the conditions listed below.
While not necessary to determine MDA formation, the above assays have been modified as follows: rat brain synaptosomes are prepared as described in the Example about the conjugated diene assay, except that the final wash of the synaptosomes and final suspension are in physiological (normal) saline in which the pH has been adjusted to 7.0. The synaptosomes are incubated for 10 min at 37° in physiological (normal) saline pH 7.0 (total volume=100 ul) containing; 10 ul synaptosomal suspension, 10% DMSO plus or minus drug, 150 uM Fe^+++ and 50 uM Fe++. The incubation is started by the rapid addition of iron to the otherwise complete reaction. The iron solutions are prepared fresh as ferric chloride and ferrous ammonium sulfate in argon-purged water. Following the 10 min incubation, the reaction is stopped by the addition of 500 ul ice-cold 12% trichloroacetic acid prepared in 0.5N hydrochloric acid. Water (300 ul) is then added along with 100 ul of freshly prepared thiobarbituric acid (3.3% in 0.5N sodium hydroxide) and 10 ul of 5 mM desferrioxamine. The sample is then heated in a boiling water bath for 20 minutes. The samples are cooled and centrifuged for 15 minutes at 1500×g and the absorbence of the supernatant fraction is read at 532 nm. The % inhibition of MDA formation is calculated by dividing the absorbance of sample containing drug by the absorbence of samples incubated without drug. Reaction blanks are samples incubated in the absence of iron. A compound that inhibits MDA formation by 50% or more at a concentration of 200 μM or less is considered "active".

angiogenesis = assay: Chick embryo assay of Folkman (inhibition of angiogenesis / tumor growth); assay type: in vivo; conditions: 50 μg/10 μl in the presence of heparin
Protocol: According to this procedure compounds which are considered to be "active" (i.e. antiangiogenic) give an avascular zone of 4 mm or greater in some embryos when tested at 50 μg/10 μl in the presence of 50 μg/10μ of heparin.

SMILES	inhibition of conjugated diene formation (activity in words) [1]	inhibition of interleukin 1 (activity in words) (interleukin-1)	inhibition of MDA formation (activity in words) (MDA formation)	also measured
CCN(CC)c1cc(N2CCN(CC(=O)[C@@]3(O)CC[C@H]4[C@@H]5CCC6=CC(=O)CC[C@]6(C)C5=CC[C@@]43C)CC2)nc(N)n1 [Example 4, 21-[4-[2-Amino-6-(diethylamino)-4-pyrimidinyl]-1-piperazinyl]-17α-hydroxypregna-4,9(11)-diene-3,20-dione]	demonstrate such activity			inhibition of mucous secretion (activity in words) (mucous secretion): demonstrate such activity; arachidonic acid antagonism (activity in words) (arachidonic acid): demonstrate arachidonic acid antagonism
C[C@]12CCC(=O)C=C1CC[C@@H]1C2=CC[C@@]2(C)[C@H]1CC[C@]2(O)C(=O)CN1CCC(O)(c2ccc(C(F)(F)F)cc2)CC1 [Example 5, 17α-Hydroxy-21-[4-hydroxy-4-(4-trifluoromethyl)-phenyl-1-piperidinyl]-pregna-4,9(11)-diene-3,20-dione]	demonstrate such activity			
C[C@H]1C[C@@H]2C(=CC[C@@]3(C)[C@H]2CC[C@]3(O)C(=O)CN2CCN(c3cc(N4CCCC4)nc(N4CCCC4)n3)CC2)[C@@]2(C)C=CC(=O)C=C12 [Example 47, 17α-hydroxy-6α-methyl-21-[4-[2,6-bis(1-pyrrolidinyl)-4-pyrimidinyl]-1-piperazinyl]pregna-1,4,9(11)-triene-3,20-dione (E)-2-butenodioate salt]	demonstrate such activity	demonstrate inhibition of interleukin 1	demonstrate such activity	arachidonic acid antagonism (activity in words) (arachidonic acid): demonstrate arachidonic acid antagonism
C[C@]12CCC(=O)C=C1CC[C@@H]1C2=CC[C@@]2(C)[C@H]1CC[C@]2(O)C(=O)CN1CCN(c2cccc(N3CCCC3)n2)CC1 [Example 62, 17α-hydroxy-21-[4-[6-(1-pyrrolidinyl)-2-pyridinyl]-1-piperazinyl] pregna-4,9(11)-diene-3,20-dione (E)-2-butenedioate (1:1) salt]			demonstrate such activity	% of Control LD50 100 mg/kg (arachidonic acid; 100 mg/kg, test compound IV): 138%; arachidonic acid antagonism (activity in words) (arachidonic acid): demonstrate arachidonic acid antagonism
C[C@@H]1C[C@H]2[C@@H]3CCC4=CC(=O)C=C[C@]4(C)[C@H]3[C@H](O)C[C@]2(C)[C@H]1C(=O)CN1CCN(c2cc(N3CCCC3)nc(N3CCCC3)n2)CC1 [Example 84, 11α-hydroxy-16α-methyl-21-[4-[2,6-bis(1-pyrrolidinyl)-4-pyrimidinyl]-1-piperazinyl]pregna-1,4-diene 3,20-dione]	demonstrate such activity	demonstrate inhibition of interleukin 1		
C[C@@H]1C[C@H]2[C@@H]3CCC4=CC(=O)C=C[C@]4(C)C3=CC[C@]2(C)[C@H]1C(=O)CN1CCN(c2cc(N3CCOCC3)nc(N3CCOCC3)n2)CC1 [Example 86, 16α-methyl-21-[4-[2,6-bis(4-morpholino)-4-pyrimidinyl]-1-piperazinyl]-pregna-1,4,9(11)-triene-3,20-dione]	demonstrate such activity	demonstrate inhibition of interleukin 1	demonstrate such activity	% Inhibition at 10^-6 M (interleukin-1; interleukin 1, 10^-6 M): 84%; inhibition of angiogenesis (activity in words) (angiogenesis): demonstrate inhibition of angiogenesis
C[C@]12CCC(=O)C=C1CC[C@@H]1C2=CC[C@]2(C)[C@@H](CCN3CCN(c4cc(N5CCCC5)nc(N5CCCC5)n4)CC3)CC[C@@H]12.Cl [Example 104, 21-[4-(2,6-Bis(1-pyrrolidinyl)-4-pyrimidinyl)-1-piperazinyl]pregna-4,9(11)-dien-3-one hydrochloride]			demonstrate such activity	inhibition of angiogenesis (activity in words) (angiogenesis): demonstrate inhibition of angiogenesis
C[C@]12CCC(=O)C=C1CC[C@@H]1C2=CC[C@@]2(C)[C@H]1CC[C@]2(O)C(=O)CN1CCN(c2cc(N3CCOCC3)nc(N3CCOCC3)n2)CC1 [Example 105, 21-[4-(2,6-Bis(4-morpholino)-4-pyrimidinyl)-1-piperazinyl]-17α-hydroxypregna-4,9(11)-diene-3,20-dione dihydrochloride, hydrate]		demonstrate inhibition of interleukin 1		inhibition of mucous secretion (activity in words) (mucous secretion): demonstrate such activity; preferred mucous inhibitors by the test results (in words) (mucous secretion; test results disclose): preferred mucous inhibitors; inhibition of angiogenesis (activity in words) (angiogenesis): demonstrate inhibition of angiogenesis
C[C@]12C=CC(=O)C=C1CC[C@@H]1C2=CC[C@]2(C)[C@@H](C(=O)CN3CCN(c4cc(N5CCCC5)nc(N5CCCC5)n4)CC3)CC[C@@H]12.Cl.Cl [Example 111, 21-[4-(2,6-Bis(1-pyrrolidinyl)-4-pyrimidinyl)-1-piperazinyl]pregna-1,4,9(11)-triene-3,20-dione dihydrochloride]	demonstrate such activity			
CC(CN1CCN(c2cc(N3CCCC3)nc(N3CCCC3)n2)CC1)[C@H]1CC[C@H]2[C@@H]3CCC4=CC(=O)C=C[C@]4(C)[C@H]3CC[C@]12C.CS(=O)(=O)O.O (some centres unmarked) [Example 112, 21-[4-(2,6-Bis(1-pyrrolidinyl)-4-pyrimidinyl)-1-piperazinyl]-20-methylpregna-1,4-dien-3-one methanesulfonate, hydrate]	demonstrate such activity			
C[C@@H]1C[C@H]2[C@@H]3CCC4=CC(=O)C=C[C@]4(C)[C@H]3CC[C@]2(C)[C@H]1C(=O)CN1CCN(c2cc(N3CCCC3)nc(N3CCCC3)n2)CC1.Cl.Cl [Example 121, 16α-Methyl-21-[4-[2,6-bis(1-pyrrolidinyl)-4-pyrimidinyl]-1-piperazinyl]-pregna-1,4-diene-3,20-dione dihydrochloride]			demonstrate such activity	
COc1ccc2c(c1)CC[C@@H]1[C@@H]2CC[C@@]2(C)[C@H]1CC[C@]2(O)C(=O)CN1CCN(c2cc(N3CCCC3)nc(N3CCCC3)n2)CC1 [Example 125, 3,17α-Dihydroxy-21-[4-[2,6-bis(1-pyrrolidinyl)-4-pyrimidinyl]-1-piperazinyl]-19-norpregna-1,3,5(10)-trien-20-one 3-methyl ether (E)-2-butenedioate 1:1 salt]			demonstrate such activity	
C[C@]12CC[C@@H]3c4ccc(O)cc4CC[C@H]3[C@@H]1CC[C@]2(O)C(=O)CN1CCN(c2cc(N3CCCC3)nc(N3CCCC3)n2)CC1 [Example 129, 3,17α-Dihydroxy-21-[4-[2,6-bis(1-pyrrolidinyl)-4-pyrimidinyl]-1-piperazinyl]-19-norpregna-1,3,5(10)-trien-20-one (E)-2-butenedioate 1:1 salt]			demonstrate such activity	
